{"source": "paper PMC7483475", "about": "“The Sporomusa type Nfn is a novel type of electron-bifurcating transhydrogenase that links the redox pools in acetogenic bacteria” (Scientific Reports, 2020)", "key": {"[1]": {"molecular_target": "T1, Stn complex (Sporomusa type Nfn; StnABC) (Sporomusa ovata, UniProt A0A0U1KYI6+A0A0U1KYM9)", "T1 construct": "gene SpAn4DRAFT_2936; native purification from S. ovata cytoplasm, untagged; ~840 kDa tetrameric heterotrimer; identified by MALDI-TOF-MS; with Sporomusa type Nfn subunit A (NuoE-like, HydC/HndA-like [2Fe-2S] subunit)", "T1 sequence (A0A0U1KYM9 1-584)": "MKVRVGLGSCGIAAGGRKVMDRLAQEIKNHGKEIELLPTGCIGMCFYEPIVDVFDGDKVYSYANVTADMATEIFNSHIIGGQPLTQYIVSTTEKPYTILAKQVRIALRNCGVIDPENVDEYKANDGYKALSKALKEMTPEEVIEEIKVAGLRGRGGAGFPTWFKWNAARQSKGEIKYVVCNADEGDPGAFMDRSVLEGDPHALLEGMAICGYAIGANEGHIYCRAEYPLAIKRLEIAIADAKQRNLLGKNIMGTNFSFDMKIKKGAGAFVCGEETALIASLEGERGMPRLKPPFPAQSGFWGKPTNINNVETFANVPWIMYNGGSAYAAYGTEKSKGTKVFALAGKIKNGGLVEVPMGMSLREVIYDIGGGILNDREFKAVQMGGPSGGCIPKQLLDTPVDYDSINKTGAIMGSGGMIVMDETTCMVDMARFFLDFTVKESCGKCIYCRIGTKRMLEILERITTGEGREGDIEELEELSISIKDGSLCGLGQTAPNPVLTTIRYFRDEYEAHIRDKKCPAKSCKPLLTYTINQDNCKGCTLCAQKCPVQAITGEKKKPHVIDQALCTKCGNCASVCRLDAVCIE", "T1 sequence (A0A0U1KYI6 1-1172)": "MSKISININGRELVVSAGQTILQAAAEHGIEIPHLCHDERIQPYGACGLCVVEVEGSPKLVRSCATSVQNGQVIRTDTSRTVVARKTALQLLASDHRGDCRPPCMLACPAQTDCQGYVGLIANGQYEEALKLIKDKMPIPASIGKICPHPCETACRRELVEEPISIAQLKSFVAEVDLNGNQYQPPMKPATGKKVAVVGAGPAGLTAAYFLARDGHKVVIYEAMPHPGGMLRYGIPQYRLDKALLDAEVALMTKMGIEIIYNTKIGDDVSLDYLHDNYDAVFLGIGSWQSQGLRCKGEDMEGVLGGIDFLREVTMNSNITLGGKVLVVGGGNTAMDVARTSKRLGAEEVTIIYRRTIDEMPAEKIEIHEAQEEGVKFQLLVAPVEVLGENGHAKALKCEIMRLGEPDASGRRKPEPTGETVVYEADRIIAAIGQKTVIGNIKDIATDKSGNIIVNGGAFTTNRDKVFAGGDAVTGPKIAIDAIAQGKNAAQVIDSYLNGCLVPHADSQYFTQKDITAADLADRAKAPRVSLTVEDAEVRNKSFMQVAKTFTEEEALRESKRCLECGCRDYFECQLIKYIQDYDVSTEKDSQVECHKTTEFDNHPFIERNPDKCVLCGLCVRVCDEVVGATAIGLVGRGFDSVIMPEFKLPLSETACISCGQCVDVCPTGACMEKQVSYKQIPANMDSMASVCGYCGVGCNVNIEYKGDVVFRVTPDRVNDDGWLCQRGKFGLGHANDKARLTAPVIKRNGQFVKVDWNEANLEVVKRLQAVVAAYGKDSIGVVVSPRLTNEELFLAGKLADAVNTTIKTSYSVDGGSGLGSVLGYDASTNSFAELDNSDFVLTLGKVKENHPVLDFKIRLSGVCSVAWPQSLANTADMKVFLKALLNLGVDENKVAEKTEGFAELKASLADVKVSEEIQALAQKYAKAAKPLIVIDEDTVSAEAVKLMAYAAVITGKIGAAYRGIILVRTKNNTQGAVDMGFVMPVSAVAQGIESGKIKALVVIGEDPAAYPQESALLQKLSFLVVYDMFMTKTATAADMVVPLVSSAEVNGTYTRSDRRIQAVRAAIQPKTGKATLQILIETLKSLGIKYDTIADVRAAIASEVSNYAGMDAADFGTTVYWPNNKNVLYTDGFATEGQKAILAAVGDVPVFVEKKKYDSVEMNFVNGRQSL", "T1 sequence (A0A0U1KYW8 1-178 partner)": "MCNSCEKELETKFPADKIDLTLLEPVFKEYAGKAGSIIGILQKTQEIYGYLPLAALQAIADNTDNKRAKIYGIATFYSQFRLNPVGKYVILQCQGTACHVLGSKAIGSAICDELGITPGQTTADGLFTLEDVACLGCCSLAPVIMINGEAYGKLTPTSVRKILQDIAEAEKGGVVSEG", "assay": "protein precipitation and thin layer chromatography of released flavin", "format": "binding", "conditions": "bound flavin, loosely bound; FAD and FMN present in purification buffers"}, "StnC (strep-tagged) [2]": {"molecular_target": "T2, StnC (strep-tagged) (Sporomusa ovata, UniProt A0A0U1KYI6)", "T2 construct": "gene SpAn4DRAFT_2937; isolated subunit, N-terminal Strep-tag kept, E. coli BL21 (DE3) delta-iscR; translated from primers: N-term MWSHPQFEKSA-SKISININGR, C-term NFVNGRQSL", "T2 sequence (A0A0U1KYI6 2-1172)": "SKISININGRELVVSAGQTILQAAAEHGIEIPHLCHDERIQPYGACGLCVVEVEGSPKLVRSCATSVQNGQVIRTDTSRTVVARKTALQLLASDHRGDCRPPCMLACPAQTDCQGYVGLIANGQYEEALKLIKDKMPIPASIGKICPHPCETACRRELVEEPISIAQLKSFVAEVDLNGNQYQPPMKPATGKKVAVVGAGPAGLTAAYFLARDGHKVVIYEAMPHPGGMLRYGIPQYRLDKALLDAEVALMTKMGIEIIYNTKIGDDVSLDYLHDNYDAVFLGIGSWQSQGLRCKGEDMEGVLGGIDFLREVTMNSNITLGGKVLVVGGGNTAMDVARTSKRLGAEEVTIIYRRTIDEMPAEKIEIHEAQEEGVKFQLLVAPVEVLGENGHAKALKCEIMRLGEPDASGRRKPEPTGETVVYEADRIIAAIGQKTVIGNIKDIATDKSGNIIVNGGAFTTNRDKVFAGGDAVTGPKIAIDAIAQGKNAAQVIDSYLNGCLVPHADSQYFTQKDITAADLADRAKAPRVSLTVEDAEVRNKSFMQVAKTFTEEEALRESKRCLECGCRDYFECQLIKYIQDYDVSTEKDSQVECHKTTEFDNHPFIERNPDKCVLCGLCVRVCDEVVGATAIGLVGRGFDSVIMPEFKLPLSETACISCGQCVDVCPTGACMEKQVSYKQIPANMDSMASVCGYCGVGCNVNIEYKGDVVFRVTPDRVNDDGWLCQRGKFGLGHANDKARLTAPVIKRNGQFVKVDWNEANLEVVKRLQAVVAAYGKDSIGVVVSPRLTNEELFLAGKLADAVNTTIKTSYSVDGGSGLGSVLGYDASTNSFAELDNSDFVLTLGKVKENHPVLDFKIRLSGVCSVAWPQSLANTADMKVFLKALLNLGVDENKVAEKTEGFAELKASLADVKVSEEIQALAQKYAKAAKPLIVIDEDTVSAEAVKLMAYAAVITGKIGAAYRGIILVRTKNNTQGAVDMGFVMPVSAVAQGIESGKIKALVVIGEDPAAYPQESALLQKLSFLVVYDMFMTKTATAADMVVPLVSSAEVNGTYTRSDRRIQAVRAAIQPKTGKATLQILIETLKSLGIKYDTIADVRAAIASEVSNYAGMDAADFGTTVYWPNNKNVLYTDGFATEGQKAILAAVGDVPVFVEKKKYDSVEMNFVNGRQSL", "assay": "thin layer chromatography of bound flavin", "format": "binding", "conditions": "bound flavin of recombinant StnC"}, "StnC (strep-tagged) [3]": {"molecular_target": "T2, StnC (strep-tagged)", "assay": "spectrophotometric FMN reduction, […] nm", "format": "biochemical", "conditions": "electron acceptor, 0.2 mM FMN, 0.25 mM NADPH; 100 mM Tris/HCl pH 7.5, 20 °C"}, "StnC (strep-tagged) [4]": {"molecular_target": "T2, StnC (strep-tagged)", "assay": "spectrophotometric NADPH-dependent acceptor reduction", "format": "biochemical", "conditions": "acceptors methyl viologen, FAD, FMN or ferricyanide; 100 mM Tris/HCl pH 7.5, 20 °C"}, "[5]": {"molecular_target": "Sporomusa type Nfn (Stn) complex, heterotrimer of StnA, StnB and StnC (Sporomusa ovata)", "assay": "SEC; analytical gel filtration of the purified Stn complex on Superdex 200; heterotrimer to tetramer of heterotrimers"}}, "data": [{"compound": "Cc1cc2nc3c(=O)[nH]c(=O)nc-3n(C[C@H](O)[C@H](O)[C@H](O)COP(=O)(O)OP(=O)(O)OC[C@H]3O[C@@H](n4cnc5c(N)ncnc54)[C@H](O)[C@@H]3O)c2cc1C", "note": "[FAD]", "values": [{"measurement": "protein precipitation and thin layer chromatography of released flavin", "setting": "[1]", "result": "FAD was identified to be the only flavin bound"}, {"measurement": "thin layer chromatography of bound flavin", "setting": "StnC (strep-tagged) [2]", "result": "The identity of bound Flavin was elucidated by TLC to be FAD."}]}, {"compound": "Cc1cc2nc3c(=O)[nH]c(=O)nc-3n(C[C@H](O)[C@H](O)[C@H](O)COP(=O)(O)O)c2cc1C", "note": "[FMN]", "values": [{"measurement": "spectrophotometric FMN reduction, 450 nm", "setting": "StnC (strep-tagged) [3]", "result": "The purified protein exhibited NADPH oxidation with methyl viologen, FAD, FMN and ferricyanide"}]}, {"compound": "NC(=O)C1=CN([C@@H]2O[C@H](COP(=O)(O)OP(=O)(O)OC[C@H]3O[C@@H](n4cnc5c(N)ncnc54)[C@H](OP(=O)(O)O)[C@@H]3O)[C@@H](O)[C@H]2O)C=CC1", "note": "[NADPH]", "values": [{"measurement": "spectrophotometric NADPH-dependent acceptor reduction", "setting": "StnC (strep-tagged) [4]", "result": "The purified protein exhibited NADPH oxidation with methyl viologen, FAD, FMN and ferricyanide"}]}, {"compound": "Sporomusa type Nfn (Stn) complex, heterotrimer of StnA, StnB and StnC", "values": [{"measurement": "stoichiometry N", "setting": "[5]", "result": 4}]}]}
